Tested on: WT BMDCs
Test: BMDC maturation with AICAR plus adenosine kinase inhibitor or nucleoside transporter inhibitor
Type: cell-based, mice
Settings: CD40, CD80, CD86, I-A^b by FACS
Method: FIG. 15 depicts the combined effect of AICAR and a nucleoside transporter or an adenosine kinase inhibitor on BMDC maturation. WT BMDCs were stimulated with LPS and 1 mM AICAR in the presence or absence of 0.1 mM IODO or 1 μM DPY. The number of CD11c-gated CD40, CD80, CD86 and I-A^b positive cells was measured by FACS. Bars represent mean±SD from three independent experiments. BMDCs were generated as previously described (Wang et al. (2005) IMMUNOL. LETT. 98:123-130). Briefly, bone marrow was flushed from the femurs and tibias of naive mice (6 to 8-week-old WT or AMPKα1 KO mice). The red blood cells were lysed using Red Blood Cell Lysing Buffer (Sigma). Approximately 2×10^6 cells were cultured in complete medium (RPMI 1640 medium containing 10% FBS, […], 10 mM HEPES [pH 7.4], 2 mM glutamine, 100 U/ml penicillin, and […]) including 10 ng/ml GM-CSF (Pepro Tech, London, England). Fresh media was added to the cells on day 4 of culture, and nonadherent cells and loosely adherent cells were collected as immature DCs on day 7. Immature DCs were stimulated with 100 ng/ml LPS (Salmonella typhimurium; Sigma) for 24 hours to obtain mature DCs. In some experiments, AICAR was added to the culture. […] To further study AICAR's suppressive effect, an adenosine kinase inhibitor (IODO) was used to inhibit AICAR conversion to ZMP. […]

Nc1ncnc2c1c(I)cn2[C@@H]1O[C@H](CO)[C@@H](O)[C@H]1O [IODO]
Effect on downregulation of co-stimulatory molecule expression by AICAR (0.1 mM IODO with LPS and 1 mM AICAR): did not affect

OCCN(CCO)c1nc(N2CCCCC2)c2nc(N(CCO)CCO)nc(N3CCCCC3)c2n1 [DPY]
Effect on AICAR-mediated suppression of co-stimulatory molecule expression (1 μM DPY with LPS and 1 mM AICAR): reversed
